From patent US20240226178A1, “ELECTROPHYSIOLOGICAL MODIFICATION TO SUPPRESS ARRHYTHMIAS” (UNIVERSITY OF WASHINGTON, priority 2021, published 2024)

Legend:
[1] = tested on: EA in pigs; conditions: after hPSC-CM transplantation, reference [17]; cited from earlier work
[2] = tested on: RUES2 hESC-CMs wild-type; test: MEA dose-response of compounds on spontaneous electrical activity of hESC-CMs; type: cell-based, human; conditions: for beating frequency / beat rate (effect in words) / spike amplitude (effect in words): RUES2 hESC-CMs wild-type on MEA, increasing doses vs DMSO control
From the text: FIGS. 6A-6F. […] Data shown as mean±SEM of 2 independent experiments each with 6 technical replicates (wells), and normalized on experimental baseline and expressed as % vs. DMSO control. Lines represents nonlinear regression of normalized response Y=100/(1+10^((LogIC50-X)*HillSlope))).
FIGS. 13A-13C. […] (FIGS. 13A, 13B, 13C) Dose-response curve of Mibefradil (ICaT, FIG. 13A), Zacopride (IK1 agonist, FIG. 13B) and Verapamil (L-type calcium channel inhibitor, FIG. 13C) on MEA system. Data shown as mean±SEM of 2 independent experiments normalized on baseline and expressed as % vs DMSO control (N=2, n=6). Lines represent nonlinear regression of normalized response Y=100/(1+10^((LogIC50-X)*HillSlope))).
The role of ion channels in automaticity has been so far largely studied in the context of the adult mouse sinoatrial node. Whether the same mechanisms also apply to hPSC-CMs and/or fetal human cardiomyocytes remains controversial. First, a variety of pharmacological compounds were tested on hPSC-CMs derived from the RUES2 human embryonic stem cells (hESCs), which were differentiated by sequential small molecule-based activation and inhibition of the WNT pathway. The inventors performed electrophysiological analyses using a multielectrode array (MEA) to record the effects of the different compounds on hPSC-CMs spontaneous electrical activity. […] Zacopride, reported to have agonistic effect on the Kir2.1 channel (encoded by KCNJ2) that mediates IKI currents, was also tested.
CytoView™ MEA 48 were coated with 0.17 mg/mL of Matrigel for 1 hour at 37° C. […] For spontaneous beat recording, spontaneous electrical activity was recorded for 5 min using Maestro™ Pro system at 37° C. with 5% CO2. Considering the irregular beat rate of the cell lines bearing KCNJ2 KI, the data are shown as total number of beats recorded per experiment, divided by the total time of recording (average beats/min). For pharmacological studies, the different compounds were diluted in DMSO and incubated directly on MEA plates for 5 min at 37° C. Effects on spontaneous beat rate was determined by recording for 15 min after drug incubation. Non-linear regression curve calculated as Y=100/(1+10^((LogIC50-X)*HillSlope))). […] Quantification of beat rate, spike amplitude and beat period irregularity was performed using Axis Navigator (beat detector threshold: 30-100 μV; Minimum beat period: 200-500 ms; Maximum beat period: 30s).

For `COc1cc2c(cc1OC)CC(=O)N(CCCN(C)C[C@H]1Cc3cc(OC)c(OC)cc31)CC2` [Ivabradine], the “effect on EA in pigs” value [1] is listed as “reduces heart rate but does not prevent EA”, the “beating frequency / beat rate (effect in words)” value (shortened to “beating frequency / beat rate”) [2] is listed as “potently reduced” and the “spike amplitude (effect in words)” value [2] is listed as “did not alter”. The “spontaneous AP firing” value ([2]; very high doses of ivabradine (100 μM)) was “did not prevent”.

For `N=C(N)SCCc1ccc(OCc2ccc([N+](=O)[O-])cc2)cc1` [KB-R3702], the “beating frequency / beat rate” value [2] was “dose-dependent reduction” and the “spike amplitude (effect in words)” value [2] was “dose-dependent reduction”.

With `CC(C)(C)CCN1C[C@@H]2C(CNC(=O)c3cc(Cl)cc(Cl)c3)[C@@H]2C1` (stereo partly shown) [ML-218] the LogIC50 ([2]; MEA dose-response, nonlinear regression of normalized response, log value, concentration unit not given) was −4.8±0.1424, the “doses at which spike amplitude decreased” value ([2]; MEA, hESC-CMs) was “above 1 μM” and the “beating frequency / beat rate” value [2] was “no effect on beating frequency until spike amplitudes were undetectable”.

With `COCC(=O)O[C@]1(CCN(C)CCCc2nc3ccccc3[nH]2)CCc2cc(F)ccc2[C@@H]1C(C)C` [Mibefradil] the IC50 ([2]; Homo sapiens, MEA dose-response, nonlinear regression of normalized response, log value, concentration unit inferred) was 20 nM.

For `CCOc1ccc(Oc2ccc(OCc3cc(F)ccc3F)cc2)c(N)c1` [SEA0400], the “beating frequency / beat rate” value [2] was “dose-dependent reduction” and the “spike amplitude (effect in words)” value [2] was “dose-dependent reduction”.

For `COc1ccc(CCN(C)CCCC(C#N)(c2ccc(OC)c(OC)c2)C(C)C)cc1OC` (stereo not shown) [Verapamil], the “beating frequency / beat rate” value [2] was “progressively decrease” and the “spike amplitude (effect in words)” value [2] was “progressively decrease”.

In the case of `COc1cc(N)c(Cl)cc1C(=O)NC1CN2CCC1CC2` (stereo not shown) [Zacopride], the “beating frequency / beat rate” value [2] is reported as “did not show measurable effects” and the “spike amplitude (effect in words)” value [2] is reported as “did not show measurable effects”.
